Results on 16 compounds are retold here after ChEMBL document CHEMBL3120164, “1,2,3,4-Tetrahydrobenzo[h][1,6]naphthyridines as a new family of potent peripheral-to-midgorge-site inhibitors of acetylcholinesterase: synthesis, pharmacological evaluation and mechanistic studies” (Eur J Med Chem, 2014).

Series [1] concerns the target T1, Acetylcholinesterase (Homo sapiens, UniProt P22303). The series is described as follows: Inhibition of human recombinant AChE using acetylthiocholine iodide as substrate preincubated for 20 mins followed by substrate addition by Ellman's method.
The target of series [2] is Acetylcholinesterase (Electrophorus electricus) (UniProt O42275). In words: Binding affinity to electric eel AChE peripheral anionic site assessed as concentration required for decreasing initial fluorescence intensity of AChE-propidium complex by spectrofluorometric analysis.
Sequence of Acetylcholinesterase (Electrophorus electricus) (O42275 24-633 limits assumed): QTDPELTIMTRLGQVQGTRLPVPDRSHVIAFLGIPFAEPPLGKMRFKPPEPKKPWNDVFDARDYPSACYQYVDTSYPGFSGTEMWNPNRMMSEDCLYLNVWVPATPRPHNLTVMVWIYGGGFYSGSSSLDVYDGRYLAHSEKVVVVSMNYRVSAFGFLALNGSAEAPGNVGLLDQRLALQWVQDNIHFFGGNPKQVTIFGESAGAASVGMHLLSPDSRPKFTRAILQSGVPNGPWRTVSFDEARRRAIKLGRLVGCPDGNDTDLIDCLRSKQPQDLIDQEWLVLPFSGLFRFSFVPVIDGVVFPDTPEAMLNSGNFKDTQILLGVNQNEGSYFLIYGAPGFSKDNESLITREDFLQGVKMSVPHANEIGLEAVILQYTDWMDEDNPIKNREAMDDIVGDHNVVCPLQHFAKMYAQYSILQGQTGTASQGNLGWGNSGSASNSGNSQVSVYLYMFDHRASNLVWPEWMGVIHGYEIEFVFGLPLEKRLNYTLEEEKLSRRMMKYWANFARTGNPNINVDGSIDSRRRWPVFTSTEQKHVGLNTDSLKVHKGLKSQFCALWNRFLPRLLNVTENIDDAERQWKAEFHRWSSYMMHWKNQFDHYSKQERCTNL
Series [3] concerns the target T2, Acetylcholinesterase (Electrophorus electricus, UniProt O42275). In words: (§1) Displacement of propidium from electric eel AChE peripheral anionic site assessed as decrease in fluorescence intensity by spectrofluorometric analysis.
The target of series [4] is Acetylcholinesterase (Electrophorus electricus) (UniProt O42275). The series is described as §1.
Series [5] deals with T2, Acetylcholinesterase.
Description: Inhibition of electric eel AChE using acetylthiocholine iodide as substrate preincubated for 20 mins followed by substrate addition measured after 5 mins by Ellman's method
In series [6] the target is Amyloid-beta precursor protein (Homo sapiens) (UniProt P05067). The series is described as follows: Inhibition of amyloid beta (1 to 42) aggregation (unknown origin) at 10 uM relative to control.
Sequence of Amyloid-beta precursor protein (Homo sapiens) (P05067 whole entry): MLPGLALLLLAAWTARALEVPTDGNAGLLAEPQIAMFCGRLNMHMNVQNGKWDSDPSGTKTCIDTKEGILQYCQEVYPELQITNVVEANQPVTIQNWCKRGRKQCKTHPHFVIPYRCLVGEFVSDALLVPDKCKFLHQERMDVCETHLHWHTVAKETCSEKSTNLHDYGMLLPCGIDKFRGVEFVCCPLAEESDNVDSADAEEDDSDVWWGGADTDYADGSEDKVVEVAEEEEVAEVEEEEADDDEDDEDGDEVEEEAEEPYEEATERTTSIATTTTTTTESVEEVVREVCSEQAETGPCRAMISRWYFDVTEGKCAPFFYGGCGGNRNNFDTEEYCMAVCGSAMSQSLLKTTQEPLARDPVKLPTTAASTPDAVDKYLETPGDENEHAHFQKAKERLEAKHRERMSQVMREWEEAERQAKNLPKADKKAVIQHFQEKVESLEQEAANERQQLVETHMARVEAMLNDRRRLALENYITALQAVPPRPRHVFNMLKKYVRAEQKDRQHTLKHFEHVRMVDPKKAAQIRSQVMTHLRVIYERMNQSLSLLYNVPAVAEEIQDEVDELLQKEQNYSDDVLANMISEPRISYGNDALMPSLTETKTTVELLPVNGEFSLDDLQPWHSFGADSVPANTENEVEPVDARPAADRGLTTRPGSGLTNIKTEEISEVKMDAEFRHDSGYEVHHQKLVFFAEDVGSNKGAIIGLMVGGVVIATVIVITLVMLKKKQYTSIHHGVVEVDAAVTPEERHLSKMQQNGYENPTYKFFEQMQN
The target of series [7] is T1, Acetylcholinesterase. The series is described as follows: Inhibition of human recombinant AChE using acetylthiocholine iodide as substrate at 25 uM preincubated for 20 mins followed by substrate addition by Ellman's method relative to control. For orientation: In Ellman's method for cholinesterases, released thiocholine reacts with DTNB.
Another series in a line: in vitro. As to conditions: PAMPA.
Series [8] concerns the target T3, Cholinesterase (Homo sapiens, UniProt P06276). In words: Inhibition of human serum BChE using butyrylthiocholine iodide as substrate at 30 uM preincubated for 20 mins followed by substrate addition measured after 5 mins by Ellman's method relative to control.
Series [9] deals with Acetylcholinesterase (Electrophorus electricus) (UniProt O42275). The series is described as follows: Inhibition of electric eel AChE using acetylthiocholine iodide as substrate at 30 uM preincubated for 20 mins followed by substrate addition measured after 5 mins by Ellman's method relative to control.
Series [10] has as its target T3, Cholinesterase. The series is described as follows: Inhibition of human serum BChE using butyrylthiocholine iodide as substrate preincubated for 20 mins followed by substrate addition measured after 5 mins by Ellman's method.
Series [11] addresses Acetylcholinesterase (Electrophorus electricus) (UniProt O42275). In words: Displacement of propidium from electric eel AChE peripheral anionic site assessed as decrease in fluorescence intensity at 1/1 propidium to compound ratio by spectrofluorometric analysis relative to control. Conditions: concentration not given here.
Series [12] addresses T1, Acetylcholinesterase. The series is described as follows: Mixed-type inhibition of human recombinant AChE using acetylthiocholine iodide as substrate by Cornish-Bowden plot analysis.
Series [13] deals with T1, Acetylcholinesterase. In words: Mixed-type inhibition of human recombinant AChE using acetylthiocholine iodide as substrate assessed as enzyme-substrate-inhibitor complex by Lineweaver-Burk plot analysis.
Series [14] concerns the target T1, Acetylcholinesterase. The series is described as follows: Mixed-type inhibition of human recombinant AChE using acetylthiocholine iodide as substrate assessed as enzyme-inhibitor complex by Lineweaver-Burk plot analysis.
Series [15] addresses T1, Acetylcholinesterase. The series is described as follows: Ratio of tacrine IC50 to compound IC50 for human recombinant AChE.
Series [16] concerns the target T1, Acetylcholinesterase. In words: Ratio of propidium IC50 to compound IC50 for human recombinant AChE.

The pIC50 is the IC50 on a negative log10 scale, so that one unit is a factor of ten. As a reminder, the pKd is the Kd on a negative log10 scale, so that one unit is a factor of ten. Usually inhibition stands for the relative decrease from the control value, in per cent. By Papp is commonly meant a coefficient for how fast a substance crosses the barrier. A higher Papp goes with fast passage. The term pKi denotes −log10 of the Ki, conventionally taken in molar units.

The structures appear in SMILES notation. pIC50, pKd, pKi: −log10 of the molar value. The source made the active and inactive calls. No cut-off for these calls is given here.

T1 sequence (P22303 whole entry): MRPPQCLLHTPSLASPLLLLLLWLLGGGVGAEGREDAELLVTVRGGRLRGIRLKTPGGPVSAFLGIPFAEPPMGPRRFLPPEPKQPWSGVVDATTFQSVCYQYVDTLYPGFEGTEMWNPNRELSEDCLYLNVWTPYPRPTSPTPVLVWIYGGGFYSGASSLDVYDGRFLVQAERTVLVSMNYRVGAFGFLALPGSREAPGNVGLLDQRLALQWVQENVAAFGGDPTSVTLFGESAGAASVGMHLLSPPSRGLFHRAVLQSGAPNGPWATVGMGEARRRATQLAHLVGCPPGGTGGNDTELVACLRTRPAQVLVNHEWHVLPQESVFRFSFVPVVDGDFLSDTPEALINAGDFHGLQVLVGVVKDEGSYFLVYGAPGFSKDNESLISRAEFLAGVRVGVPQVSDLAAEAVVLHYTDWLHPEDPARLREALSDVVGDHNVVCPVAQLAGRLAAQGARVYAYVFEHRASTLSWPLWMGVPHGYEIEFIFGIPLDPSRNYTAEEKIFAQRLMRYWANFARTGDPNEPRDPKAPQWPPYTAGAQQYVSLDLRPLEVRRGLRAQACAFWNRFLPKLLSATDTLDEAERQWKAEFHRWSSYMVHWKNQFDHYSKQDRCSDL
T3 sequence (P06276 whole entry): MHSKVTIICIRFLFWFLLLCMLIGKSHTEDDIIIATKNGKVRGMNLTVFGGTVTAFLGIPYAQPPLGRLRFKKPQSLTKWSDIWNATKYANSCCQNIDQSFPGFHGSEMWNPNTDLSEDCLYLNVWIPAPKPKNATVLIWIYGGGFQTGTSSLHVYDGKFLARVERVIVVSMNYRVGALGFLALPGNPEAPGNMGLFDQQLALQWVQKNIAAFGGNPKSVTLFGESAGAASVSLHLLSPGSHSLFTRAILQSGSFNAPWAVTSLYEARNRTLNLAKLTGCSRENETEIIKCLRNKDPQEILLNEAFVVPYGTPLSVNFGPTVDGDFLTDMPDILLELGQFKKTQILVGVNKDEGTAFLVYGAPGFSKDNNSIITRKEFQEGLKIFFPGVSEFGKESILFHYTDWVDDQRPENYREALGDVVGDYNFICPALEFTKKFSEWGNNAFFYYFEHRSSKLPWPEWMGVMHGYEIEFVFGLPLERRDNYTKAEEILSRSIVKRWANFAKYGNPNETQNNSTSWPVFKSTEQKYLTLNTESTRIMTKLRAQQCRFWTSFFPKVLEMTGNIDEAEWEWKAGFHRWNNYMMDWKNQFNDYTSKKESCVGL
T2 sequence (O42275 whole entry): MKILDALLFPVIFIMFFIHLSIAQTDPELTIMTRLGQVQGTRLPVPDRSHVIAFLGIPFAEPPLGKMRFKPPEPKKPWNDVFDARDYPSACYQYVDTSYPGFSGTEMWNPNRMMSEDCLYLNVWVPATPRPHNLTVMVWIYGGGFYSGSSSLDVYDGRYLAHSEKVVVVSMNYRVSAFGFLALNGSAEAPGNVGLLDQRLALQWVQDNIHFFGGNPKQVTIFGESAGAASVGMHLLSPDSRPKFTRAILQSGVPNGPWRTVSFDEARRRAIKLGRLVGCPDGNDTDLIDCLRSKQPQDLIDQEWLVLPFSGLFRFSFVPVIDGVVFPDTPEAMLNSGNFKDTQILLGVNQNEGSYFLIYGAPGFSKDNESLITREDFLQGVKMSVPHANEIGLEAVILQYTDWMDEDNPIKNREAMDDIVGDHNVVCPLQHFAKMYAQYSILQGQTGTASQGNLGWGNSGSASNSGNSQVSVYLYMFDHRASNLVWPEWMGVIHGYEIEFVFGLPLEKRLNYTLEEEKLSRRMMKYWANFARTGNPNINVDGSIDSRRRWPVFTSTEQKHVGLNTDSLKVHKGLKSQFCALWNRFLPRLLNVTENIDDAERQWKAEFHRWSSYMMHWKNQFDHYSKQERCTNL
Description for in vitro: Permeability of the compound by BBB-PAMPA

For `CCNCc1ccc2nc(-c3ccc(Cl)cc3)c3c(c2c1)N(Cc1ccccc1)CCC3`, the pIC50 is 6.03 on Acetylcholinesterase [1] and 6.83 against Acetylcholinesterase [5]. For the same compound, the Activity in [2] amounted to 33 µM. In addition, the pKd at Acetylcholinesterase [3] is 5.49. Besides, the inhibition entry in series [4] was “Dose-dependent effect”; in series [6], below 16%.

Turning to `CCOC(=O)c1ccc2nc(-c3ccc(Cl)cc3)c3c(c2c1)N(Cc1ccc(OC)cc1)CCC3`, the pIC50 on Acetylcholinesterase [1] is below 4.60; on Acetylcholinesterase [5] it was below 4.52. Also, the inhibition on Acetylcholinesterase [7] is 10.2%; in [6], below 16%; against Cholinesterase [8], 12.4%; in [9], 33.7%. The same compound returned a Papp in “in vitro” of 26 ×10⁻⁶ cm/s.

As to `CCNCc1ccc2nc(-c3cccnc3)c3c(c2c1)NCCC3`, the figures for the pIC50 on Acetylcholinesterase [1], on Cholinesterase [10] and at Acetylcholinesterase [5] were 4.80, 5.59 and 5.67, respectively. The inhibition in series [6] was below 16%. Also, the Papp in “in vitro” was determined as 2.4 ×10⁻⁶ cm/s.

In turn, `CCn1cc(C(=O)O)c(=O)c2cc(F)c(N3CCNC(C)C3)c(F)c21` (stereo not drawn) [LOMEFLOXACIN] had a Papp in the series “in vitro” of 0.75 ×10⁻⁶ cm/s.

With `CCOC(=O)c1ccc2nc(-c3ccc(Cl)cc3)c3c(c2c1)NCCC3`, the pIC50 was below 4.60 on Acetylcholinesterase [1] and 6.55 at Acetylcholinesterase [5]. The inhibition at Acetylcholinesterase [7] is 17.8%; in [6], below 16%; at Cholinesterase [8], 20.3%. The compound also yielded a Papp in “in vitro” of 9.7 ×10⁻⁶ cm/s.

Turning to `CCOC(=O)c1ccc2nc(-c3cccnc3)c3c(c2c1)NCCC3`, the values for the pIC50 on Acetylcholinesterase [1] and against Acetylcholinesterase [5] were 4.64 and 6.83, respectively. In addition, the inhibition in [6] is below 16%; on Cholinesterase [8], 27.5%. In “in vitro”, this compound displayed a Papp of 14.6 ×10⁻⁶ cm/s.

For the compound `CCNC(=O)c1ccc2nc(-c3ccc(Cl)cc3)c3c(c2c1)N(Cc1ccccc1)CCC3`, the pIC50 on Acetylcholinesterase [1] is 6.10; at Acetylcholinesterase [5], 5.26. Besides, the inhibition in [11] is 5%; in series [6], below 16%; against Cholinesterase [8], 25.3%. On Acetylcholinesterase [12], the inhibition entry was “Active”. In addition, the values for the pKi at Acetylcholinesterase [13] and on Acetylcholinesterase [14] were 5.63 and 6.11, respectively. Further, the Papp in “in vitro” turned out to be 7.7 ×10⁻⁶ cm/s.

Take `CCOC(=O)c1ccc2nc(-c3cccnc3)c3c(c2c1)N(Cc1ccccc1)C(=O)CC3`: the figures for the pIC50 on Acetylcholinesterase [1] and at Acetylcholinesterase [5] were 4.89 and below 4.52, respectively. Further, the inhibition in [6] was below 16%; against Cholinesterase [8], 4.42%; in series [9] it was 43.7%. The Papp in “in vitro” worked out at 12.2 ×10⁻⁶ cm/s.

Regarding `CCNCc1ccc2nc(-c3ccc(Cl)cc3)c3c(c2c1)NCCC3`, the pIC50 at Acetylcholinesterase [1] was 6.25; against Cholinesterase [10], 5.86; at Acetylcholinesterase [5], 6.27. For the same compound, in series [2], the Activity came out at 23 µM. On Acetylcholinesterase [3], the pKd is 5.66. For the same compound, the results for the inhibition result in series [4] and in series [6] were “Dose-dependent effect” and below 16%, respectively. In addition, the Papp in the series “in vitro” is 5.6 ×10⁻⁶ cm/s.

With `CCOC(=O)c1ccc2nc(-c3ccc(C(=O)OC)cc3)c3c(c2c1)N(Cc1ccccc1)C(=O)CC3`, the figures for the pIC50 on Acetylcholinesterase [1] and against Acetylcholinesterase [5] were below 4.60 and 4.87, respectively. The values for the inhibition (at Acetylcholinesterase [7]; in series [6]; against Cholinesterase [8]) were 13.8%, below 16% and 5.54%, respectively. In “in vitro”, the Papp was determined as 16.8 ×10⁻⁶ cm/s.

For the compound `CCOC(=O)c1ccc2nc(-c3ccc(Cl)cc3)c3c(c2c1)N(Cc1ccccc1)CCC3`, the pIC50 on Acetylcholinesterase [1] was below 4.60; at Acetylcholinesterase [5], 5.20. The inhibition at Acetylcholinesterase [7] is 10%; in series [6] it was below 16%; against Cholinesterase [8], 8.68%. Moreover, the Papp in “in vitro” was 8.1 ×10⁻⁶ cm/s.

`CCOC(=O)c1ccc2nc(-c3ccc(C(=O)OC)cc3)c3c(c2c1)N(Cc1ccccc1)CCC3`: the pIC50 at Acetylcholinesterase [1] is below 4.60; against Acetylcholinesterase [5], 5.18. Also, the inhibition at Acetylcholinesterase [7] is 15.7%; in [6] it was below 16%; at Cholinesterase [8], 6.61%. In the series “in vitro”, the Papp was 9.5 ×10⁻⁶ cm/s.

`CCNC(=O)c1ccc2nc(-c3ccc(Cl)cc3)c3c(c2c1)NCCC3`: the pIC50 is 7.19 at Acetylcholinesterase [1], 6.04 at Cholinesterase [10] and 7.34 at Acetylcholinesterase [5]. Besides, the inhibition result on Acetylcholinesterase [12] was “Active”. The pKi on Acetylcholinesterase [13] was 7.14; at Acetylcholinesterase [14], 7.19. Also, the Activity in series [2] turned out to be 13 µM. Moreover, the Ratio IC50 on Acetylcholinesterase [15] was found to be 6; on Acetylcholinesterase [16], 500. The pKd at Acetylcholinesterase [3] is 5.75. Also, the inhibition result is “Dose-dependent effect” in [4] and below 16% in series [6]. For the same compound, the Papp in “in vitro” came to 22.9 ×10⁻⁶ cm/s.

Take `CN1C(C(=O)Nc2ccccn2)=C(O)c2ccccc2S1(=O)=O` [PIROXICAM]: the Papp in “in vitro” was 1.71 ×10⁻⁶ cm/s.

Regarding `CCOC(=O)c1ccc2nc(-c3cccnc3)c3c(c2c1)N(Cc1ccccc1)CCC3`, the pIC50 on Acetylcholinesterase [1] is 5.97; against Acetylcholinesterase [5], 5.71. For the same compound, the inhibition in series [6] was below 16%.

In the case of `CCOC(=O)c1ccc2nc(-c3ccc(Cl)cc3)c3c(c2c1)N(Cc1ccccc1)C(=O)CC3`, the values for the pIC50 at Acetylcholinesterase [1] and on Acetylcholinesterase [5] were 5.38 and 5.28, respectively. Further, the inhibition in series [6] was below 16%; on Cholinesterase [8] it was 8.41%. In “in vitro”, this compound had a Papp of 13.3 ×10⁻⁶ cm/s.
